From patent US11192849B2, “Compounds, compositions, and methods for modulating ferroptosis and treating excitotoxic disorders” (THE TRUSTEES OF COLUMBIA UNIVERSITY IN THE CITY OF NEW YORK, priority 2013, dated 2021)

Experiments:
[1] = In vitro stability study in mouse plasma; assay type: in vitro ADME
Method: The assay was conducted by incubating 1 μM of test compounds with Mouse Plasma (Strain […]) for a series of incubation times (0, 15, 30, 60, 120 minutes) at various temperatures (wet ice, room temperature, or 37° C.) with 5% CO2 and shaking (130 rpm). At each time point, the samples were quenched with 200 μL of stop solution containing an internal standard and kept on ice. The samples were analysed by LC-MS/MS.

[2] = 2,2-Diphenyl-1-picrylhydrazyl (DPPH) cell-free antioxidant assay; assay type: biochemical; conditions: test compound 0.05 mM, 30 minutes
Method: The stable radical DPPH (Blois, 1958) was dissolved in methanol to a final working concentration of 0.05 mM. This was prepared as follows. First, a 100× stock concentration (5 mM) was prepared by dissolving 3.9 mg DPPH in 2 mL methanol. Then, for 25 mL of 0.05 mM final working solution, 250 μL of the 5 mM solution was added to 24.75 mL of methanol. 1 mL of DPPH solution was added to a small volume (<5 μL) each test compound dissolved in DMSO. The final concentration of each test compound was 0.05 mM. Samples were inverted several times and allowed to incubate at room temperature for 30 minutes. Samples were then aliquoted to white 96-well solid-bottom dishes (Corning) and absorbance at 517 nm was recorded using a TECAN M200 plate reader. All values were normalized to background (methanol only). The experiment was repeated three times and the data was averaged.
In parallel with the above cell-based assay, a 2,2-diphenyl-1-picrylhydrazyl (DPPH) assay was used to examine the ability of each analog to scavenge free radicals in a cell-free in vitro solution—a test of intrinsic antioxidant capacity. […] Redox active analogs scavenged the DPPH radical by 60-90% within 30 minutes (FIG. 18a).

[3] = tested on: HT-1080 cells; assay: Mitochondrial ROS (MitoSOX) in HT-1080 cells; assay type: cell-based, human; conditions: rotenone 250 nM, 3 hr, Fer-1 1 μM
Method: 200,000 HT-1080 cells were seeded into 6-well dishes (Corning). The next day, cells were treated with +/−rotenone +/−ferrostatin-1 for 3 hours (for MitoSOX experiments) or +/−STS +/−ferrostatin-1 for 4 hours (for 10-N-nonylacridine orange [NAO] experiments), harvested by trypsinization and analyzed as follows. For the analysis of mitochondrial ROS, cells were incubated with 5 μM MitoSOX (Molecular Probes/Invitrogen) in HBSS for 10 minutes in the dark at 37° C. […] MitoSOX data were collected in the FL2 channel and NAO data was collected in the FL1 channel. Data are from three independent biological replicates of each experiment. Data were analyzed by one-way ANOVA with Bonferroni's post-hoc test.
A minimum of 10,000 cells were analyzed per condition.

[4] = tested on: HT-1080 cells; assay: Mitochondrial cardiolipin peroxidation (10-N-nonylacridine orange) in HT-1080 cells; assay type: cell-based, human; conditions: STS 100 nM, NAO probe
Method: 200,000 HT-1080 cells were seeded into 6-well dishes (Corning). […] For the analysis of mitochondrial ROS, cells were incubated with 5 μM MitoSOX (Molecular Probes/Invitrogen) in HBSS for 10 minutes in the dark at 37° C. For the analysis of mitochondrial cardiolipin peroxidation, cells were incubated with NAO dissolved to a final concentration of 25 ng/mL in HBSS for 10 minutes in the dark at 37° C. Cells were then washed once in HBSS and measurements were subsequently acquired using an flow cytometer (BD/Accuri C6) equipped with a 488 nm laser for excitation of fluorophores. MitoSOX data were collected in the FL2 channel and NAO data was collected in the FL1 channel. Data are from three independent biological replicates of each experiment. Data were analyzed by one-way ANOVA with Bonferroni's post-hoc test.

[5] = tested on: C57BL/6 mice, kidney ischemia-reperfusion injury; assay: Kidney model of ischemia-reperfusion injury (IRI); assay type: in vivo
Method: As an initial in vivo study, the effects of Fer-1 and SRS16-86 on serum creatinine, a marker of kidney damage, were evaluated in an ischemia reperfusion injury (IRI) model of kidney failure (FIG. 21).
Organs were dissected as indicated in each experiment and infused with 4% (vol/vol) neutral-buffered formaldehyde, fixated for 48 h, dehydrated in a graded ethanol series and xylene, and finally embedded in paraffin. Stained sections were analyzed using an Axio Imager microscope (Zeiss). Kidney damage was quantified by two experienced pathologists in a double-blind manner on a scale ranging from 0 (unaffected tissue) to 10 (severe organ damage). The following parameters were chosen as indicative of morphological damage to the kidney after ischemia-reperfusion injury (IRI): brush border loss, red blood cell extravasation, tubule dilatation, tubule degeneration, tubule necrosis, and tubular cast formation. These parameters were evaluated on a scale of 0-10, which ranged from not present (0), mild (1-4), moderate (5 or 6), severe (7 or 8), to very severe (9 or 10). Each parameter was determined on at least four different animals.
Induction of kidney IRI was performed via a midline abdominal incision and a bilateral renal pedicle clamping for either 40 min (severe IRI, or “lethal-to-WT” IRI) or 50 min (ultra-severe IRI) using microaneurysm clamps (Aesculab). Throughout the surgical procedure, the body temperature was maintained between 36° C. and 37° C. by continuous monitoring using a temperature-controlled self-regulated heating system (Fine Science Tools). After removal of the clamps, reperfusion of the kidneys was confirmed visually. The abdomen was closed in two layers using standard 6-0 sutures. Sham-operated mice underwent the identical surgical procedures, except that microaneurysm clamps were not applied. To maintain fluid balance, all of the mice were supplemented with 1 mL of prewarmed PBS administered intraperitoneally directly after surgery. All mice were killed 48 h after reperfusion for each experiment. […] All ischemia-reperfusion experiments were performed in a double-blinded manner.

Q: Which “mouse plasma stability” value [1] does the source give for `CCOC(=O)c1ccc(NC2CCCCC2)c(N)c1` [SRS8-28 (Fer-1), ethyl 3-amino-4-(cyclohexylamino)benzoate] here?
A: Its value is “poor plasma stability”.

Q: And the “intrinsic antioxidant capability in the DPPH assay” value [2]?
A: Its value is “readily oxidized the stable radical”.

Q: And the “accumulation of mitochondrial superoxide in response to rotenone” value [3]?
A: The value was “did not prevent”.

Q: And the “mitochondrial cardiolipin oxidation in response to staurosporine” value [4]?
A: Its value is “did not prevent”.

Q: And the “serum creatinine in IRI model of kidney failure” value ([5]; 2 mg/kg IP 30 minutes prior to induction of IRI)?
A: Its value is “effective”.

Q: What about the “functional acute renal failure and structural organ damage after severe IRI” value ([5]; 40 min ischemia, 48 h after reperfusion, 2 mg/kg i.p.) of the same molecule?
A: Its value is “protected from functional acute renal failure”.
